Results from PMC6107127, “Characteristics of the mitochondrial and cellular uptake of MPP^+, as probed by the fluorescent mimic, 4'I-MPP^+” (PLoS ONE, 2018).

Key:
[1] = tested on: MN9D cells; test: Chromatin condensation test for apoptosis (DAPI); format: cell-based, mouse; conditions: 250 μM, 12 h
Experimental: MN9D cells grown in glass-bottomed plates were treated with 250 μM MPP^+ or 4'I- MPP^+ for 12 h and then with 300 nM DAPI in KRB-HEPES for 15 min in the dark at 37 °C [24]. Then cells were rinsed and PBS was added to cover the cell layer. Increase in nuclear DAPI fluorescence (Ex/Em at 358/461 nm) due to chromatin condensation was observed using a Nikon ECLIPSE Ti-S inverted fluorescence microscope. The controls were treated similarly except that MPP^+ or 4'I-MPP^+ was omitted from the initial incubation medium.

[2] = Solubility in incubation media; format: physicochemical; conditions: concentrations above 200 μM
[3] = Relative HPLC elution times and hydrophobicities; format: physicochemical
[4] = tested on: MN9D cells; test: Intracellular ATP levels; format: cell-based, mouse; conditions: 100 μM, 6 h at 37 °C
Experimental: Cells grown in 12-well plates were treated with 100 μM MPP^+ or 4'I-MPP^+ in KRB-HEPES for 6 h at 37 °C. After the treatments, cells were suspended in 1 mL of ice-cold KRB-HEPES and 50 μL samples were withdrawn for protein quantification. The remaining cell suspensions were centrifuged for 3 min at 3,500 x g at 4 °C and the cell pellets were treated with 1 mL of lysis buffer (0.1 M Tris, 1% Triton X-100, pH 7.5) for 2 min and centrifuged at 3,500 x g for 3 min to remove the cell debris. The ATP contents of the supernatants were measured using a fluorometric ATP assay kit (BioVision, Milpitas CA, USA) following the manufacture’s guidelines. All ATP levels were normalized to the protein content of each sample.

[5] = tested on: HepG2 cells; test: Cellular uptake of MPP+ and 4'I-MPP+ (HPLC-UV / fluorescence); format: cell-based, human; conditions: 100 μM toxin, 40 min
Experimental: Cells were seeded into 12-well plates at 0.25 x 10^6 cells/well and grown 2–3 days to about 70–80% confluency. The media was removed and a solution containing 100 μM MPP^+ or 4'I-MPP^+ in warm KRB-HEPES (or without Ca^2+ and with 1.4 mM EGTA) was added to each well and incubated at 37 °C for the desired period of time (see Figure legends for further details). After the incubations, the media were removed and cells were washed with ice-cold KRB-HEPES. Washed cells were suspended in 1.0 mL of ice-cold KRB-HEPES and 50 μL aliquots were withdrawn for protein determination. The remaining cell suspensions were centrifuged at 5000 x g at 4 °C for 5 min and the cell pellets were treated with 75 μL of 0.1 M HClO4. The coagulated proteins were pelleted by centrifugation at 13,200 x g at 4 °C for 8 min and the MPP^+ or 4'I-MPP^+ contents of the supernatants were determined by C18-reversed-phase HPLC-UV (HPLC-UV) as previously described using standard curves constructed from authentic standards. The standard curves for HPLC-UV quantifications were constructed using authentic samples of MPP^+ and 4'I-MPP^+ under the same HPLC-UV separation conditions (S1 Fig).
To quantify 4'I-MPP^+ uptake by fluorescence, MN9D or HepG2 cells grown in glass bottomed plates, washed, and reconstituted with KRB-HEPES (1.0 mL), pH 7.4, and mounted on the stage of a Nikon ECLIPSE Ti-S inverted fluorescence microscope. […]

[6] = tested on: MN9D cells; test: Intracellular ROS (DCFH-DA); format: cell-based, mouse; conditions: 100 μM, 1 h at 37 °C
Experimental: Cells grown in 12-well plates were incubated with 10 μM DCFH-DA in KRB-HEPES for 1 h. […] After the incubations, cells were washed, harvested, solubilized with 0.1 M Tris buffer (pH 7.5) containing 1% Triton X-100, and cell debris were removed by centrifugation at 13,200 x g for 8 min at 4 °C. The content of ROS-oxidized DCFH product, 2',7'-dichlorofluorescein (DCF) in the supernatants were quantified by fluorescence (Ex/Em 488/524 nm). The data were normalized to the protein contents of individual samples. ROS productions in DCFH-DA (50 μM) loaded 250 μM 4'I-MPP^+ treated (4 h) live MN9D cells were visualized by confocal fluorescence microscopy at Ex/Em 488/524 nm using a Leica TCS SP5II microscope.

[7] = tested on: isolated MN9D cell mitochondria; test: Uptake into isolated MN9D cell mitochondria; parameters: species or system mouse; conditions: 400 μM, 45 min at 37 °C
Experimental: Intact mitochondria were isolated from MN9D cells according to the published procedure of Frezza et al.. The isolated intact mitochondrial preparations were suspended in KCl buffer and aliquots (5 μL) were withdrawn for protein determination. Desired amounts of mitochondrial suspensions were incubated with 400 μM MPP^+ or 4'I-MPP^+ in KCl buffer for 45 min at 37 °C. After the incubation, incubates were centrifuged at 7,000 x g at 4 °C for 10 min and the mitochondrial pellets were treated with 75 μL of 0.1 M HClO4.

[8] = tested on: MN9D cells; test: MTT cell viability assay; format: cell-based; conditions: Mus musculus, 16 h incubation
Experimental: Cell viability was determined by the MTT [3-(4,5-dimethylthiazol-2-yl)-2,5-diphenyltetrazolium bromide)] assay. Briefly, cells were seeded on 96-well plates and allowed to grow to about 70–80% confluence. Prior to the experiment, culture media was replaced with KRB-HCO3^- containing desired concentrations of MPP^+ or 4'I-MPP^+ and incubated for 16 h at 37 °C. After the incubation, 10 μL of 5 mg/mL MTT solution was added to each well and incubated for 2 h at 37 °C. The resulting formazan was solubilized by the addition of 210 μL detergent solution [50% DMF/H2O (v/v), 20% SDS (w/v)] followed by incubation at 37 °C for 12 h. The cell viabilities were determined by quantifying solubilized formazan by measuring the difference in the absorbance at 570 nm and 650 nm. Results were expressed as % viability of MPP^+ or 4'I-MPP^+ treated cells with respect to control cells, which were treated under the same conditions except in the absence of the MPP^+ or 4'I-MPP^+.

## C[n+]1ccc(-c2ccc(I)cc2)cc1 [4'I-MPP^+, 1-methyl-4-(4'-iodophenyl)pyridinium]
[1]
  apoptotic cell death (chromatin condensation): cause apoptotic MN9D cell death
[2]
  solubility in the incubation media: low solubility
[3]; Buffer:CH3CN 70:30
  relative elution time (hydrophobicity): 11.76
[3]; Buffer:CH3CN:MeOH 60:30:10
  relative elution time (hydrophobicity): 8.88
[3]; Buffer:CH3CN:MeOH 65:25:10
  relative elution time (hydrophobicity): 12.56
[4]
  effect on intracellular ATP levels: deplete intracellular ATP levels
[5]
  cellular uptake in 40 min: 1.4 nmoles/mg of protein
[6]
  effect on ROS production: increase ROS production
[7]
  rate of uptake into isolated mitochondria: faster than that of MPP^+
[8]
  IC50: ~40 µM
